Measured values as given in patent publication US20240425478A1, “CYCLOPENTYLPYRAZOLE CDK2 INHIBITORS” (Genentech, Inc., priority 2021, published 2024).
Where two headings read alike, the source gives them in different places.

What was measured:
[1] = test system: OVISE (JCRB1043, CCNE1-amplified); assay: OVISE EdU incorporation cell proliferation assay (CDK2-dependent); assay type: cell-based; settings: for IC50: cellular assay, read-out: CDK2 OVISE IC50; for FS SKOV-3/OVISE: fold selectivity; for increased fold-selectivity SKOV-3/OVISE over Comparator C: (+) sign after FS SKOV-3/OVISE; for improvement in CDK2 OVISE cell potency over Comparator C: Comparator C 5.5 μM
Procedure: (§1) (i) OVISE and SKOV-3 EdU Incorporation Cell Proliferation Assays
(§2) Ovarian cancer cell proliferation is measured by incorporation of EdU (5-ethynyl-2′-deoxyuridine) into newly synthesized DNA. CDK2-dependent proliferation is determined using OVISE (JCRB1043, CCNE1-amplified) while CDK4/6-dependent effect is determined with SKOV-3 (ATCC HTB-77) which is not CCNE1-amplified.
(§3) Cells are plated in 384-well plates in RPMI medium supplemented with 10% FBS. Compounds are added at desired concentrations with a final DMSO content of 0.5%, and cells incubated at 37° C./5% CO2 for 16 hours. EdU (Life Technologies) is added to a final concentration of 0.5 μM and incubation continued for 8 hours, followed by fixation with 4% paraformaldehyde. […] Images are acquired using Yokogawa CQ1 imaging cytometer with a 10×objective. […] The IC50 for inhibition of cell division is determined by fitting the fraction of EdU-positive cells as a function of compound dose using a 4-parameter logistic model.

[2] = target: T1, Cyclin Dependent Kinase 4/Cyclin D3 (CDK4-cycD3) (Homo sapiens, UniProt P11802); assay: CDK4-cycD3 TR-FRET (LANCE) enzyme assay; assay type: biochemical; settings: for Ki: Table O, enzymatic assay; for FS CDK4/CDK2: fold selectivity, enzymatic Ki ratio
T1 construct: purchased Carna Biosciences 04-105
T1 sequence (P11802 whole entry): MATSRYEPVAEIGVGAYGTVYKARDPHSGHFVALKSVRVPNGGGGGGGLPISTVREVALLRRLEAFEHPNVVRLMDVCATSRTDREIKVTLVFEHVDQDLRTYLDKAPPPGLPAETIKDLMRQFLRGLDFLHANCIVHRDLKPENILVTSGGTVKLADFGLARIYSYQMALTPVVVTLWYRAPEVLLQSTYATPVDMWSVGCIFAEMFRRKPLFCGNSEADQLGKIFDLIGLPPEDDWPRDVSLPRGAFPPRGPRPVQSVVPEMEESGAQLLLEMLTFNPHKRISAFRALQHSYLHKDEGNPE
T1 sequence (P30281 whole entry partner): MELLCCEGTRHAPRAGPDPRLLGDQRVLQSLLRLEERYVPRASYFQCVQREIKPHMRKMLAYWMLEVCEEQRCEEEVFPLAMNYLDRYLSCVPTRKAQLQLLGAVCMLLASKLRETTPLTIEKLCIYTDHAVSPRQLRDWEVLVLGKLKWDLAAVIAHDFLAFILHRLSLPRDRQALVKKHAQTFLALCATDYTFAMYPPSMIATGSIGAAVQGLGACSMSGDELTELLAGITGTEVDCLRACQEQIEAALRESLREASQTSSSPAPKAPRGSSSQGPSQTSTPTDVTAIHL
Procedure: (§4) Cyclin Dependent Kinase 1/Cyclin A2 (CDK1-cycA2), Cyclin Dependent Kinase 2/Cyclin E1 (CDK2-cycE1), Cyclin Dependent Kinase 4/Cyclin D3 (CDK4-cycD3) and Cyclin Dependent Kinase 6/Cyclin D3 (CDK6-cycD3) enzyme assays were carried out as described below.
(iii) CDK4-cycD3 TR-FRET (LANCE®)
(§5) An Echo acoustic dispenser is used to create dose responses of compound dissolved in DMSO into a 384-well microplate. A 5 μL volume of enzyme mix is added to the well, and pre-incubated with compound for 30 minutes. […] Buffer conditions are 50 mM HEPES, pH 7.5, 10 mM MgCl2, 2 mM TCEP, 0.05% BGG and 0.01% Brij 35. The reaction is quenched with 5 μL of EDTA in detection buffer (15 mM [EDTA final]). Finally, a 5 μL TR-FRET detection mix is added to the quenched reaction, which includes Europium labeled anti-phospho-4E-BP1. […] Signal is a ratio of the Acceptor and Donor fluorescence. Inhibition constants are calculated via the Morrison equation.

[3] = target: T2, Cyclin Dependent Kinase 2/Cyclin E1 (CDK2-cycE1) (Homo sapiens, UniProt P24941); assay: CDK2-cycE1 TR-FRET (LANCE) enzyme assay; assay type: biochemical; settings: for Ki: enzymatic assay, read-out: CDK2 Ki; for FS CDK1/CDK2 / FS CDK4/CDK2: fold selectivity; for increased fold-selectivity CDK4/CDK2 over Comparator C: (+) sign after FS CDK4/CDK2;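 as to improvement in potency against CDK2 (Ki) over Comparator C: fold lower CDK2 Ki than comparator c (Ki 0.032 µM)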
T2 construct: purchased ProQinase 0050-0055-1
Procedure: as §4
(ii) CDK2-cycE1 TR-FRET (LANCE®)
as §5, with “anti-phospho-MBP.” for “anti-phospho-4E-BP1.”, “equation. Enzyme source of CDK2-cycE1 is ProQinase, catalog #: 0050-0055-1.” for “equation.”

[4] = target: T3, Cyclin Dependent Kinase 1/Cyclin A2 (CDK1-cycA2) (Homo sapiens, UniProt P06493); assay: CDK1-cycA2 TR-FRET (Lance) enzyme assay; assay type: biochemical; settings: for Ki: Table O, enzymatic assay; for FS CDK1/CDK2: fold selectivity, enzymatic Ki ratio
T3 construct: purchased ProQinase 0134-0054-1
T3 sequence (P06493 whole entry): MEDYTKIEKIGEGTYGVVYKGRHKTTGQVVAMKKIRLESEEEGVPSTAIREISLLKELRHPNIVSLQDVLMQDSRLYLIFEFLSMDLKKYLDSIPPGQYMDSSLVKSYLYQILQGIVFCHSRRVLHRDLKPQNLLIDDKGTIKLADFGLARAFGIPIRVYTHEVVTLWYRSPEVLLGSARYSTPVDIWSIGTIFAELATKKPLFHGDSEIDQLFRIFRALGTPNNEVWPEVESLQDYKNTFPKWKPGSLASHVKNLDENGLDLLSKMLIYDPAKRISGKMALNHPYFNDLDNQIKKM
T3 sequence (P20248 whole entry partner): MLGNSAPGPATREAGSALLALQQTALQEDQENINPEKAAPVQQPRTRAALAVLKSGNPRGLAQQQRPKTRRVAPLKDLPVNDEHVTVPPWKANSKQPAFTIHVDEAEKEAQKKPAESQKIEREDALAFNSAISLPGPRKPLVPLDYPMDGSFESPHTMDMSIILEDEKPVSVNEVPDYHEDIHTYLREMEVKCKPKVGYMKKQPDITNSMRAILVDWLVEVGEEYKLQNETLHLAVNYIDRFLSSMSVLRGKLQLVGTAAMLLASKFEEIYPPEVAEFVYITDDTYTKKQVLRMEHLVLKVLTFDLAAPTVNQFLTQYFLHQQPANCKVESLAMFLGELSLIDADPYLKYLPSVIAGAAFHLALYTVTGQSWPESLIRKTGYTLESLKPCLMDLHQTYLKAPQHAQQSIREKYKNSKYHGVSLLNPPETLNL
Procedure: as §4
(1) CDK1-cycA2 TR-FRET (Lance®)
as §5

SKOV-3 (ATCC HTB-77) = assay: SKOV-3 EdU incorporation cell proliferation assay (CDK4/6-dependent); assay type: cell-based; settings: for IC50: Homo sapiens, cellular assay, read-out: CDK4/6 SKOV-3 IC50; for FS SKOV-3/OVISE: fold selectivity, cellular IC50 ratio
Procedure: as §1, §2, §3

[5] = Table O, cellular SKOV-3 IC50 over OVISE IC50
[6] = Table Q, in brackets after OVISE IC50
[7] = Table O, enzymatic CDK1 Ki over CDK2 Ki
[8] = Table O, enzymatic CDK4 Ki over CDK2 Ki

Compound | IC50 ([1]; Table O) | FS SKOV-3/OVISE [1, 5] | FS SKOV-3/OVISE ([1]; Table Q, cellular) | improvement in CDK2 OVISE cell potency over Comparator C [1, 6] | Ki [2] | Ki ([3]; Table O) | FS CDK1/CDK2 [3, 7] | FS CDK4/CDK2 [3, 8] | increased fold-selectivity CDK4/CDK2 over Comparator C ([3]; Table Q) | Ki ([3]; Table Q) | FS CDK1/CDK2 ([3]; Table Q, enzymatic) | FS CDK4/CDK2 ([3]; Table Q, enzymatic) | Ki [4] | IC50 (SKOV-3 (ATCC HTB-77); SK-OV-3, Table O) | IC50 (SKOV-3 (ATCC HTB-77); SK-OV-3, Table Q) | also measured
CC(C)NC(=O)O[C@@H]1CC[C@H](c2cc(Nc3ccn(C)c(=O)c3)n[nH]2)C1 [Example 2AA, (1R,3S)-3-(3-((1-methyl-2-oxo-1,2-dihydropyridin-4-yl)amino)-1H-pyrazol-5-y1)cyclopenty1 isopropylcarbamate] | 4100 nM | >49 | > 4.9 | 1.3 fold | 450 nM | 17 nM | 26 | 26 | (+) (The (+) sign in Table Q signifies desirable increased fold-selectivity of the exemplary compounds over Comparator C) | 17 nM | 26 | 26 | 440 nM | > 20000 nM | > 20000 nM | increased fold-selectivity SKOV-3/OVISE over Comparator C ([1]; Table Q): (+) (The (+) sign in Table Q signifies desirable increased fold-selectivity of the exemplary compounds over Comparator C); improvement in potency against CDK2 (Ki) over Comparator C ([3]; Table Q, in brackets after CDK2 Ki, Comparator C 0.032 μM): 1.9 fold
COc1nc(C)ncc1Nc1cc([C@H]2CC[C@@H](OC(=O)NC(C)C)C2)[nH]n1 [Example 2Y, (1R,3S)-3-(3-((4-methoxy-2-methylpyrimidin-5-yl)amino)-1H-pyrazol-5-yl)cyclopentyl isopropylcarbamate] | 16000 nM | >1.3 | >1.3 | 0.18 fold | 49000 nM | 210 nM | 36 | 230 | (+) (The (+) sign in Table Q signifies desirable increased fold-selectivity of the exemplary compounds over Comparator C) | 210 nM | 36 | 230 | 7500 nM | > 20000 nM | > 20000 nM | improvement in potency against CDK2 (Ki) over Comparator C [3]: 0.15 fold
COc1ncc(Nc2cc([C@H]3CC[C@@H](OC(=O)NC(C)C)C3)[nH]n2)cn1 [Example 2FF, (1R,3S)-3-(3-((2-methoxypyrimidin-5-yl)amino)-1H-pyrazol-5-yl)cyclopentyl isopropylcarbamate] | 1200 nM | >17 |  |  | 950 nM | 14 nM | 23 | 68 |  |  |  |  | 320 nM | > 20000 nM |  | 
C[C@@H](NC(=O)O[C@@H]1CC[C@H](c2cc(Nc3cccnn3)n[nH]2)C1)C(F)(F)F (single isomer, unassigned) [Example 5B] | 2900 nM | >6.9 |  |  | 510 nM | 26 nM | 12 | 20 |  |  |  |  | 310 nM | > 20000 nM |  | 
CC(C)NC(=O)O[C@@H]1CC[C@H](c2cc(Nc3cncc(N(C)C)n3)n[nH]2)C1 [Example 2P, (1R,3S)-3-(3-((6-(dimethylamino)pyrazin-2-yl)amino)-1H-pyrazol-5-yl)cyclopentyl isopropylcarbamate] | 370 nM | 14 | 14 | 14.9 fold | 180 nM | 4.2 nM | 7.9 | 43 | (+) (The (+) sign in Table Q signifies desirable increased fold-selectivity of the exemplary compounds over Comparator C) | 4.2 nM | 7.9 | 43 | 33 nM | 5300 nM | 5300 nM | increased fold-selectivity SKOV-3/OVISE over Comparator C ([1]; Table Q): (+) (The (+) sign in Table Q signifies desirable increased fold-selectivity of the exemplary compounds over Comparator C); improvement in potency against CDK2 (Ki) over Comparator C [3]: 8 fold
COc1ccc(Nc2cc([C@H]3CC[C@@H](OC(=O)NC(C)C)C3)[nH]n2)nn1 [Example 2JJ, (1R,3S)-3-(3-((6-methoxypyridazin-3-yl)amino)-1H-pyrazol-5-yl)cyclopentyl isopropylcarbamate] | 4100 nM | <1 |  |  | 1200 nM | 77 nM | 16 | 16 |  |  |  |  | 1200 nM | 3.2 nM |  | 
O=C(NC12CC(C1)C2)O[C@@H]1CC[C@H](c2cc(Nc3ccnnc3C3CC3)n[nH]2)C1 [Example 11, (1R,3S)-3-(3-((3-cyclopropylpyridazin-4-yl)amino)-1H-pyrazol-5-yl)cyclopentyl bicyclo[1.1.1]pentan-1-ylcarbamate] | 2600 nM | >7.7 |  |  | 1100 nM | 12 nM | 74 | 92 |  |  |  |  | 890 nM | > 20000 nM |  | 
Cc1cc(=O)n(C)nc1Nc1cc([C@H]2CC[C@@H](OC(=O)NC(C)(C)C)C2)[nH]n1 [Example 4C, (1R,3S)-3-(3-((1,4-dimethyl-6-oxo-1,6-dihydropyridazin-3-yl)amino)-1H-pyrazol-5-yl)cyclopentyl tert-butylcarbamate] | 600 nM | 32 |  |  | 580 nM | 2.1 nM | 31 | 280 |  |  |  |  | 65 nM | 19000 nM |  | CDK2 OVISE IC50 fold change in potency versus Comparator D ([1]; Table R, in brackets after OVISE IC50): 6 fold; CDK2 OVISE IC50 fold change in potency versus Comparator E ([1]; Table S, in brackets after OVISE IC50): 0.3 fold; FS CDK4/CDK2 increased over Comparator D, (+) sign ([2]; Table R): (+); FS CDK4/CDK2 ([2]; Table R): 280; FS CDK4/CDK2 increased over Comparator E, (+) sign ([2]; Table S): (+); FS CDK4/CDK2 ([2]; Table S): 280; Ki ([3]; Table R): 2.1 nM; CDK2 Ki fold change in potency versus Comparator D ([3]; Table R, in brackets after CDK2 Ki): 1.3 fold; Ki ([3]; Table S): 2.1 nM; CDK2 Ki fold change in potency versus Comparator E ([3]; Table S, in brackets after CDK2 Ki): 0.3 fold; FS CDK1/CDK2 increased over Comparator D, (+) sign ([4]; Table R): (+); FS CDK1/CDK2 ([4]; Table R): 31; FS CDK1/CDK2 ([4]; Table S): 31; selectivity for CDK2 over CDK4 compared with Comparator E (SKOV-3 (ATCC HTB-77); SKOV-3/OVISE fold-selectivity cellular assay data): increase in selectivity for CDK2 over CDK4; FS SKOV-3/OVISE increased over Comparator D, (+) sign (SKOV-3 (ATCC HTB-77); Table R): (+); FS SKOV-3/OVISE (SKOV-3 (ATCC HTB-77); Table R): 32; FS SKOV-3/OVISE increased over Comparator E, (+) sign (SKOV-3 (ATCC HTB-77); Table S): (+); FS SKOV-3/OVISE (SKOV-3 (ATCC HTB-77); Table S): 32
O=C(NC1CCOCC1)O[C@@H]1CC[C@H](c2cc(Nc3cccnn3)n[nH]2)C1 [Example 3D, (1R,3S)-3-(3-(pyridazin-3-ylamino)-1H-pyrazol-5-yl)cyclopentyl (tetrahydro-2H-pyran-4-yl)carbamate] | 7900 nM | >2.5 |  |  | 2300 nM | 61 nM | 23 | 38 |  |  |  |  | 1400 nM | > 20000 nM |  | 
